Experiments:
Assay type in all cases: biochemical
[1] = target: Human MER (residues 528-999) (Homo sapiens (Human), UniProt Q12866); assay: Human Mer kinase assay, HTRF KinEase (Example C-2); details: protocol of Example C-2
Method in brief: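 HTRF KinEase TK assay with MER 528-999 (1 ng/well) in enzymatic buffer plus 5 mM MgCl2 and 1 mM DTT, biotinylated peptide substrate and ATP at Km (40 μM), 3% DMSO final, 60 min at room temperature. Stopped with EDTA detection mix (SA-XL665, TK antibody-Eu3+), read at 665/620 nm after 60 min; IC50 from 10-point 4-parameter fit, normalized to DMSO and 1 μM reference.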

[2] = target: Human KDR (residues 790-1356) (Homo sapiens (Human), UniProt P35968); assay: Human KDR kinase assay, HTRF KinEase (Example B-2); details: protocol of Example B-2
Sequence of Human KDR (residues 790-1356) (P35968 790-1356): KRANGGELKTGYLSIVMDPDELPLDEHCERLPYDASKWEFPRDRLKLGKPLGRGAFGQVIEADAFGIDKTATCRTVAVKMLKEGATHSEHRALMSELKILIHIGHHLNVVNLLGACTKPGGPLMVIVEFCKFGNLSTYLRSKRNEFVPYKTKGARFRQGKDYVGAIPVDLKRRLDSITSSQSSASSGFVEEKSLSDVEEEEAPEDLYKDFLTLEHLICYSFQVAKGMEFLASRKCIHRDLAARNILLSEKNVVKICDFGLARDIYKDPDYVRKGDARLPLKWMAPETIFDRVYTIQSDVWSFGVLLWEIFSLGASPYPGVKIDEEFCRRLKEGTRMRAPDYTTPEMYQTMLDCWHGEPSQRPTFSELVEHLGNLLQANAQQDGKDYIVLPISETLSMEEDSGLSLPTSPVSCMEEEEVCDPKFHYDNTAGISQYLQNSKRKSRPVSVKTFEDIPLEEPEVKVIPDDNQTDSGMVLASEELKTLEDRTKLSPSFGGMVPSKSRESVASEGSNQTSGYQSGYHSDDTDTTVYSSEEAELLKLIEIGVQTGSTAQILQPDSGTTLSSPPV
Method in brief: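 Human KDR residues 790-1356 (0.1 ng/well) in buffer with 5 mM MgCl2, 1 mM MnCl2, 1 mM DTT, biotinylated peptide substrate, ATP at Km (4.0 μM), 3% DMSO, 10 compound concentrations; 40 min, room temperature. EDTA stop, streptavidin-XL665/Eu-TK antibody HTRF read 665/620 nm; 4-parameter IC50.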

[3] = target: Human MET (residues 956-1390) (Homo sapiens (Human), UniProt P08581); assay: Human Met kinase assay, HTRF KinEase (Example D-2); details: protocol of Example D-2; read-out: c-Met IC50
Sequence of Human MET (residues 956-1390) (P08581 956-1390): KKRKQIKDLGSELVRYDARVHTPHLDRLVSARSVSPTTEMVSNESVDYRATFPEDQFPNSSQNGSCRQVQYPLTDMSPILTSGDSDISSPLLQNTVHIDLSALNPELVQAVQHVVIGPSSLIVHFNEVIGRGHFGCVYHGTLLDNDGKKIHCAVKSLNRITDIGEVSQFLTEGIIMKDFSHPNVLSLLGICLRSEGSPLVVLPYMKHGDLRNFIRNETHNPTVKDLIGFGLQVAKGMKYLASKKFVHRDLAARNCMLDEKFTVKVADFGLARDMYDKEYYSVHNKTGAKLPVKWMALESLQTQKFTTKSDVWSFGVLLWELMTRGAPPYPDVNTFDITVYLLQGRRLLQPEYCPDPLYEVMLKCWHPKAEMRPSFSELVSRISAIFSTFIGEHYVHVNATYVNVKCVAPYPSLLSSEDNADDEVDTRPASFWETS
Method in brief: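 HTRF KinEase assay on MET residues 956-1390 (0.1 ng/well) in buffer with 5 mM MgCl2, 1 mM DTT and 1 mM MnCl2, with biotinylated peptide substrate, ATP at Km, 10 compound concentrations and 3% DMSO final, run 40 min at room temperature. The […] signal was normalized to DMSO and to 1 μM reference compound, and IC50 came from a 4-parameter logistic fit.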

Sequence of Human MER (residues 528-999) (Q12866 528-999): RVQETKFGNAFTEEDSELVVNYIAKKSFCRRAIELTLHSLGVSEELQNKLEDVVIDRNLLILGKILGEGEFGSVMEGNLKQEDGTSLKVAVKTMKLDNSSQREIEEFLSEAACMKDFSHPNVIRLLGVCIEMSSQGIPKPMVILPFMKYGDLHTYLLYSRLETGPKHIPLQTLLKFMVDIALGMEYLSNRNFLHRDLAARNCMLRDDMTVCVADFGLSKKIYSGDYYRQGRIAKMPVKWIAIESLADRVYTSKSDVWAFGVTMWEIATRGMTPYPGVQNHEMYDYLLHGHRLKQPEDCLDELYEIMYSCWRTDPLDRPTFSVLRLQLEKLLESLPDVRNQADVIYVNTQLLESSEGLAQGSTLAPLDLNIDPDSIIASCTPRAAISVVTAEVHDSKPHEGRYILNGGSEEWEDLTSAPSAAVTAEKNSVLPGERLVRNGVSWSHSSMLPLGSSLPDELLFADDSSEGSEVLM

Row | SMILES | IC50 [1] [nM] | IC50 [2] [nM] | IC50 [3] [nM]
1 | COc1cc2nccc(Oc3ccc(NC(=O)c4c(C)n(C)c(C)c(-c5ccc(F)cc5)c4=O)cc3)c2nc1OC [Compound 523, N-[4-[(6,7-dimethoxy-1,5-naphthyridin-4-yl)oxy]phenyl]-5-(4-fluorophenyl)-1,2,6-trimethyl-4-oxopyridine-3-carboxamide] | < 100 | > 300 | < 100
2 | COCc1nc(C)c(-c2ccc(F)cc2)c(O)c1C(=O)Nc1ccc(Oc2ccnc3ccc(OC)cc23)c(F)c1 [Compound 525, N-[3-fluoro-4-(6-methoxyquinolin-4-yl)oxyphenyl]-5-(4-fluorophenyl)-4-hydroxy-2-(methoxymethyl)-6-methylpyridine-3-carboxamide] | < 100 | > 300 | 100 to 300
3 | CCc1nc(C)c(-c2ccc(F)cc2C)c(O)c1C(=O)Nc1ccc(Oc2ccnc3ccc(OC)nc23)cc1 [Compound 526, 2-ethyl-5-(4-fluoro-2-methylphenyl)-4-hydroxy-N-[4-[(6-methoxy-1,5-naphthyridin-4-yl)oxy]phenyl]-6-methylpyridine-3-carboxamide] | < 100 | > 300 | 100 to 300
4 | COc1cnc2c(Oc3ccc(NC(=O)c4ccnn(-c5ccc(F)cc5C)c4=O)cc3)ccnc2c1 [Compound 530, 2-(4-fluoro-2-methylphenyl)-N-[4-[(7-methoxy-1,5-naphthyridin-4-yl)oxy]phenyl]-3-oxopyridazine-4-carboxamide] | 100 to 300 | > 300 | 100 to 300
5 | COc1cc2nccc(Oc3ccc(NC(=O)c4cnc(SC(C)C)n(-c5ccc(F)cc5)c4=O)cc3)c2cc1OC [Compound 539, N-[4-(6,7-dimethoxyquinolin-4-yl)oxyphenyl]-1-(4-fluorophenyl)-6-oxo-2-propan-2-ylsulfanylpyrimidine-5-carboxamide] | < 100 | 100 to 300 | 100 to 300
6 | COc1cc2nccc(Oc3ccc(NC(=O)c4cnc(C)c(-c5ccc(F)cc5)c4O)cc3F)c2nc1C [Compound 541, N-[3-fluoro-4-[(7-methoxy-6-methyl-1,5-naphthyridin-4-yl)oxy]phenyl]-5-(4-fluorophenyl)-4-hydroxy-6-methylpyridine-3-carboxamide] | < 100 | < 100 | < 100
7 | COc1cc2nccc(Oc3cc(F)c(NC(=O)c4cnc(C)c(-c5ccc(F)cc5)c4O)cc3F)c2nc1C [Compound 542, N-[2,5-difluoro-4-[(7-methoxy-6-methyl-1,5-naphthyridin-4-yl)oxy]phenyl]-5-(4-fluorophenyl)-4-hydroxy-6-methylpyridine-3-carboxamide] | < 100 | 100 to 300 | < 100
8 | CNc1nccc2c(Oc3ccc(NC(=O)c4cnc(C)n(-c5ccc(F)cc5)c4=O)cc3)ccnc12 [Compound 543, 1-(4-fluorophenyl)-2-methyl-N-[4-[[8-(methylamino)-1,7-naphthyridin-4-yl)oxy]phenyl]-6-oxopyrimidine-5-carboxamide] | < 100 | > 300 | 100 to 300
9 | Cc1ccc(C(=O)Nc2ccc(Oc3ccnc4cc(O)cnc34)c(F)c2)c(=O)n1-c1ccc(F)cc1 [Compound 551, N-[3-Fluoro-4-[(7-hydroxy-1,5-naphthyridin-4-yl)oxy]phenyl]-1-(4-fluorophenyl)-6-methyl-2-oxopyridine-3-carboxamide] | < 100 | 100 to 300 | < 100
10 | COCCOc1cnc2c(Oc3ccc(NC(=O)c4ccc(C)n(-c5ccc(F)cc5)c4=O)cc3F)ccnc2c1 [Compound 552, N-[3-Fluoro-4-[[7-(2-methoxyethoxy)-1,5-naphthyridin-4-yl]oxy]phenyl]-1-(4-fluorophenyl)-6-methyl-2-oxopyridine-3-carboxamide] | < 100 | < 100 | < 100
11 | Cc1nc(C)c(-c2ccc(F)cc2)c(O)c1C(=O)Nc1ccc(Oc2ccnc3cc(O)cnc23)c(F)c1 [Compound 554, N-[3-Fluoro-4-[(7-hydroxy-1,5-naphthyridin-4-yl)oxy]phenyl]-5-(4-fluorophenyl)-4-hydroxy-2,6-dimethylpyridine-3-carboxamide] | < 100 | < 100 | < 100
12 | COCCOc1cnc2c(Oc3ccc(NC(=O)c4c(C)nc(C)c(-c5ccc(F)cc5)c4O)cc3F)ccnc2c1 [Compound 555, N-[3-Fluoro-4-[[7-(2-methoxyethoxy)-1,5-naphthyridin-4-yl]oxy]phenyl]-5-(4-fluorophenyl)-4-hydroxy-2,6-dimethylpyridine-3-carboxamide] | < 100 | < 100 | < 100
13 | CCn1cc(C(=O)Nc2ccc(Oc3ccnc4cc(OC)c(OC)nc34)cc2)c(=O)c(-c2ccc(F)cc2)c1CF [Compound 558, N-[4-[(6,7-Dimethoxy-1,5-naphthyridin-4-yl)oxy]phenyl]-1-ethyl-6-(fluoromethyl)-5-(4-fluorophenyl)-4-oxopyridine-3-carboxamide] | < 100 | > 300 | 100 to 300
14 | CCn1cc(C(=O)Nc2ccc(Oc3ccnc4cc(OC)cnc34)c(F)c2)c(=O)c(-c2ccc(F)cc2)c1CF [Compound 559, 1-Ethyl-N-[3-fluoro-4-[(7-methoxy-1,5-naphthyridin-4-yl)oxy]phenyl]-6-(fluoromethyl)-5-(4-fluorophenyl)-4-oxopyridine-3-carboxamide] | < 100 | > 300 | < 100

Other lines, results leading:

Row | IC50 [1] [nM] | IC50 [2] [nM] | IC50 [3] [nM] | SMILES
15 | < 100 | 100 to 300 | 100 to 300 | COc1cc2nccc(Oc3ccc(NC(=O)c4c(C)c(C)nn(-c5ccc(F)cc5)c4=O)cc3F)c2nc1OC [Compound 524, N-[4-[(6,7-dimethoxy-1,5-naphthyridin-4-yl)oxy]-3-fluorophenyl]-2-(4-fluorophenyl)-5,6-dimethyl-3-oxopyridazine-4-carboxamide]
16 | < 100 | < 100 | < 100 | COc1cc2nccc(Oc3ccc(NC(=O)c4cnc(COC(C)=O)c(-c5ccc(F)cc5)c4O)cc3F)c2nc1OC [Compound 544, [5-[[4-[(6,7-dimethoxy-1,5-naphthyridin-4-yl)oxy]-3-fluorophenyl]carbamoyl]-3-(4-fluorophenyl)-4-hydroxypyridin-2-yl]methyl acetate]
17 | < 100 | > 300 | < 100 | COc1cc2nccc(Oc3ccc(NC(=O)c4cn(C)c(C(=O)O)c(-c5ccc(F)cc5)c4=O)cc3F)c2nc1OC [Compound 553, 5-[[4-[(6,7-Dimethoxy-1,5-naphthyridin-4-yl)oxy]-3-fluorophenyl]carbamoyl]-3-(4-fluorophenyl)-1-methyl-4-oxopyridine-2-carboxylic acid]
18 | < 100 | > 300 | 100 to 300 | COc1cc2nccc(Oc3ccc(NC(=O)c4cn(C)c(CF)c(-c5ccc(F)cc5C)c4=O)cc3F)c2nc1OC [Compound 556, N-[4-[(6,7-Dimethoxy-1,5-naphthyridin-4-yl)oxy]-3-fluorophenyl]-6-(fluoromethyl)-5-(4-fluoro-2-methylphenyl)-1-methyl-4-oxopyridine-3-carboxamide]
19 | < 100 | 100 to 300 | < 100 | COCCOc1nc2c(Oc3ccc(NC(=O)c4cn(C)c(CF)c(-c5ccc(F)cc5)c4=O)cc3F)ccnc2cc1OC [Compound 557, N-[3-Fluoro-4-[[7-methoxy-6-(2-methoxyethoxy)-1,5-naphthyridin-4-yl]oxy]phenyl]-6-(fluoromethyl)-5-(4-fluorophenyl)-1-methyl-4-oxopyridine-3-carboxamide]
20 | < 100 | > 300 | < 100 | COc1cc2nccc(Oc3ccc(NC(=O)c4cn(C)c(CF)c(-c5ccc(F)cc5)c4=O)cc3)c2nc1OC [Compound 560, N-[4-[(6,7-Dimethoxy-1,5-naphthyridin-4-yl)oxy]phenyl]-6-(fluoromethyl)-5-(4-fluorophenyl)-1-methyl-4-oxopyridine-3-carboxamide]
21 | < 100 | > 300 | 100 to 300 | COc1ccc2nccc(Oc3ccc(NC(=O)c4cn(C)c(CF)c(-c5ccc(F)cc5)c4=O)cc3F)c2n1 [Compound 561, N-[3-Fluoro-4-[(6-methoxy-1,5-naphthyridin-4-yl)oxy]phenyl]-6-(fluoromethyl)-5-(4-fluorophenyl)-1-methyl-4-oxopyridine-3-carboxamide]
22 | < 100 | > 300 | 100 to 300 | CCn1cc(C(=O)Nc2ccc(Oc3ccnc4cc(OC)c(OC)nc34)c(F)c2)c(=O)c(-c2ccc(F)cc2)c1CF [Compound 562, N-[4-[(6,7-Dimethoxy-1,5-naphthyridin-4-yl)oxy]-3-fluorophenyl]-1-ethyl-6-(fluoromethyl)-5-(4-fluorophenyl)-4-oxopyridine-3-carboxamide]
